Columns and labels:
[1] = system: C4-2 (parental) cells, AR(+); assay: CRPC cell proliferation assay (CellTiter-Glo), C4-2; type: cell-based; conditions: CTG at 96h
Description: (§1) Castrate-Resistant Prostate Cancer (CRPC) Cell Proliferation Assay • Cells were seeded into 96-well plates at 2,000-10,000 cells/well in 100 uL medium. Four AR(+) cell lines (LnCaP, C4-2 (parental), C4-2AR-WT and C4-2AR—F876L) and one AR(−) cell line (DU-145) were studied. Compound treated cells were analyzed for cell density at 96h, using CellTiter-Glo® (CTG) reagent (Promega).

[2] = system: C4-2AR-WT cells, AR(+); assay: CRPC cell proliferation assay (CellTiter-Glo), C4-2AR-WT; type: cell-based; conditions: CTG at 96h
Description: as §1

[3] = system: MM1.S cells; assay: MM1.S cell proliferation assay (CellTiter-Glo); type: cell-based; conditions: for IC50: MM1.S, CTG at 96h; for inhibition of proliferation of MM1.S cells: dose dependent manner, FIG. 1.A
Description: (§2) MM1.S (dexamethasone sensitive) and OPM-2 cells were purchased from ATCC and maintained in RPMI-1640 medium with 10% fetal bovine serum at 37 degrees, 5% CO2. Cells were seeded at 10,000 cells/well in 100 uL medium. The following day compounds or control vehicle (DMSO) were added at indicated concentrations in 10 ul volume. Compound treated OPM-2 cells and MM1.S cell were analyzed for cell density at 72h and 96h, respectively, using CellTiter-Glo® (CTG) reagent (Promega). The CTG assay measures the amount of ATP present, which indicates the number of viable cells in culture.

[4] = system: LnCaP cells, AR(+); assay: CRPC cell proliferation assay (CellTiter-Glo), LnCaP; type: cell-based; conditions: CTG at 96h; for IC50: Homo sapiens
Description: as §1

[5] = molecular target: T1, BRD4 BD1 (Homo sapiens, UniProt O60885); assay: BRD4 BD1 Fluorescence Polarization (FP) competition binding assay; conditions: BRD4 BD1 40 nM, probe PFI-411FP 2 nM
T1 construct: His-tagged BRD4 BD1 (44-160); made in house
Summary of the method: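 BRD4 BD1 (40 nM) preincubated 15 min at 20° C. with compound (120 to 0.0012 μM) in HEPES pH 7.4 with 0.08% BSA, then 2 nM PFI-411FP tracer added for 60 min. Fluorescence polarization read (ex 620/em 688 nm); IC50 from four-parameter fit, converted to Ki via Nikolovska-Coleska equation.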

[6] = system: OPM-2 cells; assay: OPM-2 cell proliferation assay (CellTiter-Glo); type: cell-based; conditions: for IC50: OPM-2, CTG at 72h; for inhibition of proliferation of OPM-2 cells: dose dependent manner, FIG. 1.B
Description: as §2

[7] = system: DU-145 cells, AR(−); assay: CRPC cell proliferation assay (CellTiter-Glo), DU-145; type: cell-based; conditions: CTG at 96h; for IC50: Homo sapiens
Description: as §1

[8] = system: LPS-induced IL-6 production in human whole blood; assay: IL-6 human whole blood (HWB) assay, LPS-stimulated, HTRF detection; type: cell-based; conditions: 1 ng/ml LPS, 4 hours
[9] = system: C4-2AR-F876L cells, AR(+); assay: CRPC cell proliferation assay (CellTiter-Glo), C4-2AR-F876L; type: cell-based; conditions: CTG at 96h
Description: as §1

[10] = system: HCC2429 cells; assay: NMC HCC2429 cell proliferation assay (CellTiter-Glo); type: cell-based; conditions: HCC2429, CTG at 96h
Description: NMC HCC2429 Cell Proliferation Assay • HCC2429 cells were plated into a 96-well plate (10,000 cells/well). Compounds or control vehicle (DMSO) were added at indicated concentrations. Compound-treated HCC2429 cells were analyzed for cell density at 96h using CellTiter-Glo® (CTG) reagent (Promega).

[11] = system: MYC, SOX2, involucrin and Keratin 14 expression in HCC2429 cells; assay: Biomarker analysis in HCC2429 cells (RT-PCR, Western blot); type: cell-based; conditions: for mRNA expression of involucrin: HCC2429, RT-PCR, 72 hours, 50 nM, 200 nM and 500 nM, dose dependent; for MYC protein level / SOX2 protein level: HCC2429, Western blot, 72 hrs, concentration-dependent
Description: HCC2429 cells were plated into a 6-well plate (250,000 cells/well). Cells were treated with compounds or control vehicle (DMSO) at the indicated concentrations for 72 hrs. Cells were collected, washed in PBS, and split for western blot and RNA analysis.

[12] = system: CRPC cell lines (LnCaP, C4-2, C4-2AR-WT, C4-2AR-F876L, DU-145); assay: CRPC cell proliferation assay, summary over the cell lines; type: cell-based
Description: Castrate-Resistant Prostate Cancer (CRPC) Cell Proliferation Assay • Cells were seeded into 96-well plates at 2,000-10,000 cells/well in 100 uL medium. Four AR(+) cell lines (LnCaP, C4-2 (parental), C4-2AR-WT and C4-2AR—F876L) and one AR(−) cell line (DU-145) were studied. Compound treated cells were analyzed for cell density at 96h, using CellTiter-Glo® (CTG) reagent (Promega). […] Example 10 and IBET-151 BET had submicromolar IC50 values in the AR(+) cell lines. The inhibitors maintained potency in C4-2 cells engineered to express wild type (WT) AR receptor (C4-2-AR-WT), as well as cells engineered to express the F876L mutation (C4-2-AR-F876L) that confers resistance to androgen receptor (AR) antagonists.

Row | Structure (SMILES) | IC50 [1] [nM] | Max % Inh [1] [%] | IC50 [2] [nM] | Max % Inh [2] [%] | IC50 ([3]; Homo sapiens) [nM] | inhibition of proliferation of MM1.S cells [3] | Max % Inh [4] [%] | IC50 [4] [nM] | IC50 ([6]; Homo sapiens) [nM] | inhibition of proliferation of OPM-2 cells [6] | Max % Inh [7] [%] | IC50 [7] [nM] | IC50 [9] [nM] | Max % Inh [9] [%] | mRNA expression of involucrin [11] | MYC protein level [11] | SOX2 protein level [11] | also measured
1 | CC[C@H](COC)n1c(=O)c(NCCC(=O)O)nc2ccc(-c3c(C)noc3C)nc21 [Example 47, N-{6-(3,5-dimethyl-1,2-oxazol-4-yl)-4-[(2R)-1-methoxybutan-2-yl]-3-oxo-3,4-dihydropyrido[2,3-b]pyrazin-2-yl}-beta-alanine] | > 5000 | 80 | > 5000 | 82 | 39 | inhibited proliferation | 62 | > 5000 | 160 | inhibited proliferation | 43 | > 5000 | > 5000 | 81 | – | – | – | IC50 [5]: 194 nM; IC50 [8]: 6160 nM
2 | CCNC(=O)C[C@@H]1N=C(c2ccc(Cl)cc2)c2cc(OC)ccc2-n2c(C)nnc21 [IBET-762] | – | – | – | – | 12 | inhibited proliferation | – | – | 30 | inhibited proliferation | – | – | – | – | increased | down-regulated | down-regulated | IC50 ([10]; Homo sapiens): 85 nM
3 | Cc1sc2c(c1C)C(c1ccc(Cl)cc1)=N[C@@H](CC(=O)OC(C)(C)C)c1nnc(C)n1-2 [JQ1(+)] | – | – | – | – | – | inhibited proliferation | – | – | – | inhibited proliferation | – | – | – | – | increased | down-regulated | down-regulated | IC50 [10]: 44 nM; IC50 [3]: 11 nM; IC50 [6]: 9 nM
4 | CNC(=O)c1ccc(N2C(=S)N(c3ccc(C#N)c(C(F)(F)F)c3)C(=O)C2(C)C)cc1F [MDV3100, reference compound] | – | 33 | – | 39 | – | – | 43 | – | – | – | 23 | – | – | 44 | – | – | – | activity on cell proliferation ([12]; short-term assay, compared with the BET inhibitors): weaker activity
5 | COc1cc2c(cc1-c1c(C)noc1C)ncc1[nH]c(=O)n([C@H](C)c3ccccn3)c12 [i-BET151, reference compound] | 490 | 90 | 430 | 92 | – | – | 78 | 400 | – | – | 74 | 1130 | 470 | 90 | – | – | – | IC50 values in the AR(+) cell lines ([12]; AR(+) cell lines, CTG at 96h): submicromolar
